Test [1] has as its system HepG2 cells. Nature of the test: Pathway of peptide entry: pretreatment with cytochalasin D or heparin. Type of test: cell-based, human. The conditions noted are these: 30 min pretreatment, 10 μM peptide, 3 h; for effect of heparin pretreatment on peptide entry: 2 μg/ml heparin. On the procedure: Cells were plated overnight at 1×10^5 per well in eight chamber slides in complete MEM medium containing 10% FCS. The cells were washed thrice with MEM medium, and pretreated for 30 min with either 10 μm cytochalasin D or 2 μg/ml of heparin in MEM at 37° C. Peptide was then added at a concentration of 10 μM and cells were incubated for 3 h at 37° and 5% CO2. The cells were washed with PBS, fixed with 4% formaldehyde and PBS for 30 min, and a drop of Prolong Gold antifade reagent with DAPI (Invitrogen cat# P36931) was added to each well. The slides were dried overnight in the dark, and examined by microscopy by using a Nikon E600 fluorescent microscope. Photos were taken using Nikon ACT-1 software.
Exactly how cell-permeable peptides pass through the plasma membrane of cells is still not fully understood. […] Actin elongation on the cell surface leads to an extension of the plasma membrane into the extracellular environment. When the plasma membrane fuses back with itself it forms macropinosomes, and in doing so encapsulates and internalizes a large volume of extracellular fluid. Another mechanism is via the binding of peptides to cell surface heparan sulphate proteoglycans, which leads to internalization of the peptide through an endocytic process. HepG2 cells were pretreated with cytochalasin D and heparin, and then incubated with FITC-labelled cell permeable peptides aa 16-22, and aa 16-35 for 3 h to determine whether either of the above two mechanisms mediated cell uptake of the X-protein peptides. Control cells were treated with the X-protein peptides but were not treated with either chemical. Cytochalasin D is an F-actin elongation inhibitor, which inhibits macropinocytosis by inhibiting extension of the plasma membrane. Heparin would be expected to antagonize the binding of the peptides to cell surface heparan sulphate proteoglycans.

In test [2] the test system is HepG2 cells. Nature of the test: Assay for cell permeability of X-protein peptides (fluorescence and confocal microscopy). Particulars: for uptake by HepG2 cells (cell permeability): FITC-labelled peptide 10 μM, 3 h, medium without FCS; for intracellular distribution (confocal slicing): FITC-labelled peptide, HepG2 cells. Type of test: cell-based, human. On the procedure:
(§1) The cells were then incubated overnight at 37° and 5% CO2, and then washed thrice with media without FCS. The X-protein peptide in 250 μl of appropriate media without FCS was added to the cells at a final concentration of 10 μM, and the slides incubated for 3 h at 37° C. and 5% CO2. The cells were washed with PBS, fixed with 4% formaldahyde in PBS for 30 min, and washed thrice with PBS. […] The slides were dried overnight in the dark, and examined by microscopy by using a Nikon E600 fluorescent microscope. Photos were taken using Nikon ACT-1 software. For further examination, slides were then examined by confocal microscopy using a Leica TCS-SP2 confocal microscope.

Test [3] addresses T1, X-protein N-terminal peptide 1-50 (Hepatitis B virus genotype C subtype adr, UniProt Q81163, DEL44-44/P38S/S41A/S42F/V5L).
T1 construct: The parent peptide containing aa 1-50 conjugated N-terminally to a biotin tag; purchased; host or cells: chemical synthesis
Put plainly: Peptide binding assay: FITC-peptides on peptide 1-50-coated plates. Particulars: FITC-peptide at 10, 20, 40 μg/ml, 30 min. On the procedure:
Qligomerization peptides were received in powdered form, and were weighed and diluted in a sterile 10% DMSO solution to make a 10 mg/ml stock solution. The wells of a Reactibind neutravidin-coated 96 well plate (Thermoscientific cat #15507) were thrice washed with 200 μl of plate washing buffer. Peptide 1-50, which contains a biotin tag, was diluted to 10 μg/ml in wash buffer and 100 μl of the solution was placed into each well being used. The plate was incubated at room temperature for 2 h, and the wells washed thrice with 200 μl of wash buffer. Truncated fluorescent variants of peptide 1-50 at 40 μg/ml, 20 μg/ml, and 10 μg/ml were added to the wells in triplicate, and the plates incubated at room temperature for 30 min. The wells were then washed thrice with 200 μl of wash buffer under low light conditions, and the plate read on a Biotek fluorescent plate reader at an excitation wavelength of 490 nm and an emission wavelength of 520 nm.
A ligand-binding assay was performed using streptavidin-coated plates in order to define the minimum peptide motif needed for dimerization of the X-protein. In this scenario the X-protein monomer serves as its own ligand. […] A series of short peptides from the region encoding aa 1-50 were synthesized. The parent peptide containing aa 1-50 conjugated N-terminally to a biotin tag was added to the streptavidin coated plates. […] Non-biotinylated peptides encoding aa 1-20, 16-35, 21-40 and 34-53 were added at 10, 20, and 40 μg/ml to the wells coated with peptide aa 1-50. The smaller peptides were each conjugated to a FITC tag for detection using a fluorescent plate reader. […] Binding performed with lesser concentrations of the peptides was not significant. Even smaller peptides encompassing that region 16-35 were made to determine whether the aa 16-35 was the minimum peptide motif needed for X-protein dimerization. These peptides synthesized, namely aa 16-26, 16-24, and 16-22 were analyzed using the same peptide binding assay. […] Thus of the peptides examined, the minimal peptide motif needed for dimerization of the X-protein is the […] peptide 16-35.

Test [4] concerns H441 lung carcinoma cell line. Put plainly: Peptide uptake by other cell lines. Type of test: cell-based, human. The conditions noted are these: H441, 3 h. The protocol: as §1
(§2) The X-protein cell-permeable peptide aa 16-22 was tested for its ability to be taken up by other mammalian cell lines including the human C32 melanoma, DU145 prostate carcinoma, TK1 T cell lymphoma, H441 lung carcinoma, Rin-m5f rat pancreatic islet tumor and Cos-1/7 green monkey kidney cell lines. TK1 cells are suspension cells whereas all other cell lines are adherent cells. Cells were incubated with the fluoresceinated X-protein cell-permeable peptide 16-22 for 3 h in medium appropriate for that cell line in the absence of FCS. The HepG2 cell line was used as a positive control. The X-protein peptide was able enter all adherent cell lines regardless of type or source of the cell (FIGS. 22 and 23).

Test [5] relates to DU145 prostate carcinoma cell line. Put plainly: Peptide uptake by other cell lines. Particulars: DU145, 3 h. Type of test: cell-based, human. The protocol:
as §1, §2

Test [6] concerns adherent monocytes and platelets. Put plainly: Peptide uptake by adherent buffy coat cells. Type of test: cell-based, human. Particulars: 3 h, cells adhered to 8-chamber slides. On the procedure:
(§3) To determine whether this was a general feature of nonadherent cells, the ability of the peptide to enter non-adherent human peripheral blood mononuclear cells was examined. A buffy coat containing monocytes, lymphocytes, and platelets was isolated from 10 ml of human blood and incubated in 8-chamber slides for 3 h with the cell-permeable peptide aa 16-22 in RPMI medium without FCS.

Test [7] deals with nonadherent peripheral blood mononuclear cells. Put plainly: Peptide uptake by nonadherent buffy coat cells. Type of test: cell-based, human. Particulars: 3 h, RPMI without FCS. The protocol:
as §3

Test [8] deals with Rin-m5f pancreatic islet tumor cell line. Put plainly: Peptide uptake by other cell lines. Type of test: cell-based, rat. The conditions noted are these: 3 h. The protocol: as §1, §2
[9] abbreviates: listed as X-protein cell-permeable peptide 16-22.
[10] abbreviates: listed as cell-permeable peptide aa 16-22.

The values below come from patent US20150158914A1, “PEPTIDES, CONSTRUCTS AND USES THEREFOR” (priority 2010, published 2015).

“Also recorded” adds a separate entry of the source. Ends that are not written are not given here. * marks the point of attachment. FITC = O=C1OC2(c3ccc(O)cc3Oc3cc(O)ccc32)c2ccc(NC(=S)*)cc21

For the substance “FITC-Acp-LCLRPVGAESRGRPVSGPFG [Peptide 16-35]”, the “effect of heparin pretreatment on peptide entry” value in test [1] (listed as aa 16-35) is on record as “dependent on heparin binding; also recorded: effectively blocked peptide entry into the cells”. Besides, the “effect of cytochalasin D pretreatment on peptide entry” value in test [1] is reported as “no effect on the entry of the peptides into the cell”. In addition, in test [2] (listed as aa 16-35), the “uptake by HepG2 cells (cell permeability)” value was “cell-permeable; also recorded: readily taken up by the cells”; the “intracellular distribution (confocal slicing)” value is “taken up into the cytoplasm and nucleus; also recorded: taken up into the cell cytoplasm, as well as into the nucleus”. Moreover, in test [3], the “binding to peptide 1-50 (fluorescence)” value is “bound significantly more strongly to peptide 1-50; also recorded: binds to the X-protein N-terminal peptide 1-50”.
Regarding “FITC-LCLRPVG ({FITC}-LCLRPVG) [Peptide 16-22]”, the “effect of heparin pretreatment on peptide entry” value in test [1] (listed as aa 16-22) was “dependent on heparin binding; also recorded: effectively blocked peptide entry into the cells”. The “effect of cytochalasin D pretreatment on peptide entry” value in test [1] is “no effect on the entry of the peptides into the cell”. Besides, the “uptake by HepG2 cells (cell permeability)” value in test [2] (setting [9]) was “able to enter”; in test [2] (listed as aa 16-22), “cell-permeable, being taken up by cells at a level equivalent to that of the parental peptide aa 16-35; also recorded: taken up into the cells”. In addition, in test [2] (listed as aa 16-22), the “intracellular distribution (confocal slicing)” value is “taken up into both the cytoplasm and nucleus of cells”. The “uptake of the peptide, cells positive” value in test [2] (HepG2, 3 h, no FCS) is listed as greater than 90 % cells positive; in test [4] (no FCS) it was 60 to 70 % cells positive; in test [5] (no FCS), greater than 90 % cells positive; in test [8] (Rin-m5f, no FCS), 60 to 70 % cells positive. The “binding to peptide 1-50 (fluorescence)” value in test [3] was “could not match the strong binding shown by the parental peptide 16-35”. The entry into cells entry in test [4] is listed as “taken up less efficiently”; in test [5] it was “able to enter”; in test [8] (Rinm5f), “taken up less efficiently”. For the same substance, the “uptake by adherent monocytes and platelets” value in test [6] (setting [9]) is “able to enter adherent monocytes, and potentially adherent platelets”; in test [6] (setting [10]), “had taken up the peptide”. Besides, the “uptake by nonadherent buffy coat cells” value is “unable to enter” in test [7] (setting [9]) and “did not take up the peptide” in test [7] (setting [10]).
